{
  "source": "patent EP0481701B1",
  "about": "“Treatment composition” (priority 1990, dated 1992)",
  "key": {"[1]": {"experiment": "solubility of Triclosan in PBS (remark in the method)", "type": "physicochemical", "settings": "PBS without ethanol", "description": "(§1) Liposomes were prepared by the reverse phase evaporation procedure referred to above incorporating Triclosan in the lipid mixture. Some of the liposome samples were prepared with concanavalin A (ConA) conjugated to their surface. Details are as follows: (a) Derivatisation of ConA with SATA 2.5µl of a stock solution containing 9.08mg N-succinimidyl-S-acetyl thioacetate (SATA) in 50µl dimethylformamide was added to ConA solution (10mg in 2.5ml phosphate (50mM) - EDTA (1mM) buffer, pH7.5) at room temperature. After reaction (15min) the derivatised protein (s-ConA) was separated from unreacted SATA by gel filtration on a Sephadex G-50 column (15 x 2cm). The s-ConA was activated by deacetylation using, for each 2ml of protein solution, 200µl of 0.1M hydroxylamine solution, made up in 2.5mM EDTA with sufficient solid Na₂HPO₄ added to bring the pH to 7.5. […] The fractions collected were analysed for phospholipid and Triclosan by scintillation counting. Particle sizes of the liposomes were determined by photon correlation spectroscopy, following the method described in Hutchinson et al., Biochim. […] (e) Assessment of efficacy The antibacterial efficacy of Triclosan delivered in targeted liposomes was assessed using a bacterial regrowth assay. […]"}, "Strep. sanguis (CR2b)": {"test_system": "Strep. sanguis (CR2b)", "experiment": "bacterial regrowth assay (antibacterial efficacy of Triclosan delivered in targeted liposomes)", "type": "cell-based", "description": "as §1, with “7.5. (b) Preparatlon of DPPE-MBS 40mg L-α-dipalmitoylphosphatidylethanolamine (DPPE) was dissolved in a mixture of 16ml dry chloroform, 2ml dry methanol and 20mg dry triethylamine. 20mg maleimidobenzoyl-N-hydroxysuccinimide ester (MBS) was added and the reaction mixture was stirred under nitrogen at room temperature for 24h, after which the organic phase was washed three times with phosphate buffered saline (PBS, pH7.3) to remove unreacted MBS. The DPPE-MBS derivative was recovered from the organic phase by rotary evaporation and was stored in a chloroform/methanol mixture (9:1 v/v) at 4°C. (c) Preparation of liposomes 27mg dipalmitoylphosphatidylcholine (DPPC), 3mg phosphatidylinositol (PI, from wheat germ) and 3mg DPPE-MBS were dissolved in 9ml chloroform/methanol mixture (4:1 v/v).” for “7.5.”"}},
  "data": [
    {"smiles": "Oc1cc(Cl)ccc1Oc1ccc(Cl)cc1Cl", "note": "[Triclosan in solution, 2,4,4'-trichloro-2'-hydroxy diphenyl ether]", "values": [
      {"measurement": "solubility in PBS alone", "setting": "[1]", "result": "virtually insoluble"},
      {"measurement": "% inhibition of growth incubated with saliva", "setting": "Strep. sanguis (CR2b); 1min exposure, PBS plus human saliva (1:1), 5µg Triclosan in 100µl PBS with 10% ethanol", "result": 3, "unit": "%"},
      {"measurement": "% inhibition of growth without saliva", "setting": "Strep. sanguis (CR2b); 1min exposure, PBS, no saliva, 5µg Triclosan in 100µl PBS with 10% ethanol", "result": 8, "unit": "%"},
      {"measurement": "% inhibition of growth", "setting": "Strep. sanguis (CR2b); relative to PBS alone, 2h exposure at 37°C, regrowth 18h, optical density at 630nm, PBS containing 10% ethanol, total Triclosan 10µg (free, liposomes with ConA) or 20µg (liposomes without ConA) in 100µl", "result": 75, "unit": "%"}
    ]}
  ]
}
